In patent US20220064316A1, “TREATMENT OF CANCER USING HUMANIZED ANTI-BCMA CHIMERIC ANTIGEN RECEPTOR” (The Trustees of the University of Pennsylvania, priority 2014, published 2022):

What was measured:
[1] = test system: humanized CD19 CART cells; assay: In vivo proliferation of humanized CD19 CART cells with and without RAD001 dosing; conditions: RAD001 0.003 mg/kg daily, with huCAR19
Method: FIGS. 46A and 46B show in vivo proliferation of humanized CD19 CART cells with and without RAD001 dosing. […] Circles denote PBS; squares denote huCTL019; triangles denote huCTL019 with 3 mg/kg RAD001; inverted triangles denote huCTL019 with 0.3 mg/kg RAD001; diamonds denote huCTL019 with 0.03 mg/kg RAD001; and circles denote huCTL019 with 0.003 mg/kg RAD001.

NALM6-luc tumors = assay: NALM6-luc tumor growth under daily oral RAD001; assay type: in vivo, NSG mice; conditions: daily oral dosing of RAD001 alone
Method: NALM6-luc cells: The NALM6 human acute lymphoblastic leukemia (ALL) cell line was developed from the peripheral blood of a patient with relapsed ALL. The cells were then tagged with firefly luciferase. These suspension cells grow in RPMI supplemented with 10% heat inactivated fetal bovine serum.
Mice: 6 week old NSG (NOD.Cg-Prkdc^scidIl2rg^tm1Wjl/SzJ) mice were received from the Jackson Laboratory (stock number 005557).
Tumor implantation: NALM6-luc cells were grown and expanded in vitro in RPMI supplemented with 10% heat inactivated fetal bovine serum. The cells were then transferred to a 15 ml conical tube and washed twice with cold sterile PBS. NALM6-luc cells were then counted and resuspended at a concentration of 10×10^6 cells per milliliter of PBS. The cells were placed on ice and immediately (within one hour) implanted in the mice. NALM6-luc cells were injected intravenously via the tail vein in a 100 µl volume, for a total of 1×10^6 cells per mouse.
(§1) RAD001 dosing: A concentrated micro-emulsion of 50 mg equal to 1 mg RAD001 was formulated and then resuspended in D5W (dextrose 5% in water) at the time of dosing. Mice were orally dosed daily (via oral gavage) with 200 μl of the desired doses of RAD001.

[2] = test system: CAR-expressing, transduced T cells; assay: Proliferation of CARTs co-cultured with Nalm-6 cells in presence of RAD001; assay type: cell-based; conditions: low doses of RAD001, 4 days of co-culture with Nalm-6 cells
Method: CARTs were co-cultured with Nalm-6 cells in the presence of different concentrations of RAD001. The number of CAR-positive CD3-positive T cells (black) and total T cells (gray) was assessed after 4 days of co-culture.

[3] = RAD001 PK analysis in blood of NALM6-luc tumor bearing mice; assay type: in vivo, NSG mice
Method: as §1
PK analysis: Mice were dosed daily with RAD001 starting 7 days post tumor implantation. Dosing groups were as follows: 0.3 mg/kg, 1 mg/kg, 3 mg/kg, and 10 mg/kg. Mice were bled on days 0 and 14 following the first and last dose of RAD001, at the following time points for PK analysis: 15 minutes, 30 minutes, 1 hour, 2 hours, 4 hours, 8 hours, 12 hours, and 24 hours.

[4] = test system: huCART19 cells co-cultured with Nalm-6; assay: huCART19 proliferation in 4 day co-culture with Nalm-6 in presence of RAD001; assay type: cell-based, human
Text: A humanized, anti-human CD19 CAR (huCART19) lentiviral transfer vector was used to produce the genomic material packaged into VSVg pseudotyped lentiviral particles. The amino acid and nucleotide sequence of the humanized anti-human CD19 CAR (huCART19) is CAR 1, ID 104875 described in PCT publication, WO2014/153270, filed Mar. 15, 2014, and is designated SEQ ID NOs. 85 and 31 therein.
Lentiviral transfer vector DNA is mixed with the three packaging components VSVg env, gag/pol and rev in combination with lipofectamine reagent to transfect Lenti-X 293T cells. Medium is changed after 24h and 30h thereafter, the virus-containing media is collected, filtered and stored at −80° C. CARTs are generated by transduction of fresh or frozen naïve T cells obtained by negative magnetic selection of healthy donor blood or leukopak. […] The percentage of cells transduced (expressing the CARs on the cell surface) and the level of CAR expression (relative fluorescence intensity, Geo Mean) are determined by flow cytometric analysis between days 7 and 9. […]
To evaluate the functionality of CARTs, the T cells are thawed and counted, and viability is assessed by Cellometer. […]
For measuring the proliferation of CARTs, T cells are cultured with target cells at a ratio of 1:1. […] The number of T cells is assessed by flow cytometry using counting beads as reference.

huCAR19 CAR T cells = assay: huCAR19 CAR T cell expansion in vivo with RAD001 (FACS); parameters: species or system NSG mice; conditions: lowest doses of RAD001, daily oral; more evident with CD4+ than CD8+ CAR T cells
Method: CAR T cell dosing: Mice were administered 5×10^6 CAR T cells 7 days after tumor implantation. Cells were partially thawed in a 37 degree Celsius water bath and then completely thawed by the addition of 1 ml of cold sterile PBS to the tube containing the cells. The thawed cells were transferred to a 15 ml falcon tube and adjusted to a final volume of 10 mls with PBS. The cells were washed twice at 1000 rpm for 10 minutes each time and then counted on a hemocytometer. T cells were then resuspended at a concentration of 50×10^6 CAR T cells per ml of cold PBS and kept on ice until the mice were dosed. The mice were injected intravenously via the tail vein with 100 μl of the CAR T cells for a dose of 5×10^6 CAR T cells per mouse. Eight mice per group were treated either with 100 μl of PBS alone (PBS), or humanized CD19 CAR T cells.
as §1
Based on these doses, huCAR19 CAR T cells were dosed with and without RAD001 to determine the proliferative ability of these cells. The highest dose used was 3 mg/kg based on the levels of RAD001 in the blood 24 hours after dosing. […] Mice were monitored via FACS for T cell expansion.

concentration at 24 h ([3]; NSG, mouse, whole blood, 24 hours after dosing, 0.3 mg/kg oral daily, day 0 and day 14, read-out: RAD001 concentrations in the blood): > 10 nM
stability in the blood ([3]; tumor bearing mice, FIGS. 45A, 45B): fairly stable
SMILES: CO[C@H]1C[C@@H]2CC[C@@H](C)[C@@](O)(O2)C(=O)C(=O)N2CCCC[C@H]2C(=O)O[C@H]([C@H](C)C[C@@H]2CC[C@@H](OCCO)[C@H](OC)C2)CC(=O)[C@H](C)/C=C(\C)[C@@H](O)[C@@H](OC)C(=O)[C@H](C)C[C@H](C)/C=C/C=C/C=C/1C [RAD001, (1R,9S,12S,15R,16E,18R,19R,21R,23 S,24E,26E,28E,30S,32S,35R)-1,18-dihydroxy-12-{(1R)-2-[(1S,3R,4R)-4-(2-hydroxyethoxy)-3-methoxycyclohexyl]-1-methylethyl}-19,30-dimethoxy-15,17,21,23,29,35-hexamethyl-11,36-dioxa-4-aza-tricyclo[30.3.1.04,9]hexatriaconta-16,24,26,28-tetraene-2,3,10,14,20-pentaone]
CAR T cell proliferation in vivo [1]: enhancement in CAR T cell proliferation
growth of NALM6-luc tumors (NALM6-luc tumors): did not have an impact
proliferation of CAR-expressing, transduced T cells [2]: enhanced
huCART19 proliferation versus no RAD001 ([4]; 0.0032 and 0.016 nM RAD001): higher than observed without the addition of RAD001
RAD001 concentration at which huCART19 cells expanded ([4]; 4 day co-culture with Nalm-6, 1:1, lesser extent at higher concentrations): less than 0.016 nM
proliferation of the CAR T cells in vivo (huCAR19 CAR T cells): enhanced proliferation
